Laboratory results as given in patent US5589510A, “Method for inhibiting retroviral infection by administering a naphthalenesulfonic acid compound” (priority 1995, dated 1996).
Read-outs that look alike come from different tables or passages of the source.

Experiments:
[1] = tested on: TA98, TA1535, TA1537, TA1538, TA100 and W2P2uvr; test: Ames Test (in the presence of S9); assay type: cell-based, Salmonella typhimurium
Excerpt: Six Salmonella typhimuriumstrai strains, TA98, TA1535, TA1537, TA1538, TA100 and W2P2uvr were used in this experiment.

LD50, intravenous, mice = assay type: in vivo; conditions: mouse, in vivo, female mice, mortalities within 1 week
Description: The test material was administered intravenously to 5 female mice in five increasing doses. Mortalities were recorded within 1 week, and the LD50 was determined with the aid of statistical calculations.

[2] = molecular target: T1, recombinant reverse transcriptase (RT) (Human immunodeficiency virus type 1 group M subtype B, UniProt P04585); test: Reverse transcriptase inhibition assay; assay type: biochemical, HIV-1
T1 construct: purchased Worthington Biochemical Corporation
Description: Inhibition of recombinant reverse transcriptase (RT) was performed by using commercially available Boehringer Mannheim RT assay kit (Cat. No. 1468 120) based on incorporation of digoxigenin labeled dUTP into DNA. Recombinant enzyme from HIV-1 was purchased from Worthington Biochemical Corporation. The level of anti-RT activity in the sample was determined by measurement of absorbance using an ELISA reader at 405 nm.

HIV-1 RF [3] = test: Antiviral assay, Experimental Protocol I (compound added after infection); assay type: cell-based; conditions: Human immunodeficiency virus 1, 240 h, p24 ELISA, read-out: % Inhibition (after day 10); for inhibition at 0.3 µg/mL: 0.3 μg/ml; for inhibition at 0.6 µg/mL: 0.6 μg/ml; for inhibition at 1.25 µg/mL: 1.25 μg/ml; for inhibition at 2.5 µg/mL: 2.5 μg/ml; for inhibition at 5 µg/mL: 5 μg/ml
Description: HIV-1 infectivity studies were conducted in CEM, H9, MT2 cells and peripheral blood mononuclear cells (PBMC). CEM, H9 and MT2 were grown in RPMI1640 medium, 10% heat-inactivated fetal bovine serum (FBS). PBMCs were stimulated with 4 μg/ml PHA for 48 hours in RPMI1640, 10% FBS before HIV-1 infection. After HIV-1 infection, PBMCs were maintained in RPMI 1640, 10% FBS and 10 10 units/ml IL-2. The major HIV-1 isolates used were MN, IIIB, SF2, AZT-sensitive A018 and AZT-resistant A018 provided by NIH AIDS research and reference reagent program. Two major antiviral assays were developed to determine the antiviral activities of the compounds of this invention (as inhibitors).
I. The cells were infected with HIV-1 RF or IIIB at an infectivity multiplicity (moi) of 0.001 in the absence of a compound of this invention for one hour. HIV-1 infected cells were washed once with PBS, resuspended in RPMI1640, 10% FBS medium and distributed in 24-well culture dishes (5×10^5 cells per well) in the presence of a compound of this invention as inhibitor. […]

HIV-1 patient isolate IH = test: Inhibition of HIV-1 patient isolate IH in PBMCs; assay type: cell-based; conditions: Human immunodeficiency virus 1, PBMC, 288 h, read-out: % Inhibition (after day 12); for inhibition at 2.5 µg/mL: 2.5 μg/ml; for inhibition at 5 µg/mL: 5 μg/ml; for inhibition at 10 µg/mL: 10 μg/ml; for inhibition at 20 µg/mL: 20 μg/ml
Description: The inhibitory effects of additional naphthalenesulfonic acid compounds were tested as follows: Experimental Details:
PBMCs were activated for 48 hours in conditioned medium containing PHA at a concentration of 4 μg/ml. […] The test compound, previously dissolved in a glucose solution (1 mg/ml), was then added to each of the wells to achieve the appropriate concentration. The plate was then incubated overnight (about 15 hours) after which 50 μl of cell-free HIV-1 patient isolate was added to each well. The plates were incubated for further 6 to 8 hours after which all free floating solution of virus was washed off. Washing was performed four times.
After removal of the virus, all cultures were resuspended in conditioned medium containing 10% FCS.
For control experiments virus growth was monitored in either 10% FCS or 50% FCS throughout the observation period (15 days).

HIV-1 RF [4] = test: Antiviral assay, Experimental Protocol II (virus incubated with compound before cells); assay type: cell-based; conditions: Human immunodeficiency virus 1, 240 h, 10% FCS, p24 ELISA, read-out: % Inhibition (after day 10)
[5] = the higher the value, the higher the mutagenicity

SMILES	Ames Test result [1]	LD50 at 168 h (LD50, intravenous, mice)	inhibition at 0.5 µM [2]	inhibition at 0.6 µg/mL (HIV-1 RF [3]; 10% FCS)	inhibition at 1.25 µg/mL (HIV-1 RF [3]; 10% FCS)	inhibition at 2.5 µg/mL (HIV-1 RF [3]; 10% FCS)	inhibition at 5 µg/mL (HIV-1 RF [3]; 10% FCS)	inhibition at 5 µg/mL (HIV-1 patient isolate IH; 10% FCS)	inhibition at 10 µg/mL (HIV-1 patient isolate IH; 10% FCS)	inhibition at 20 µg/mL (HIV-1 patient isolate IH; 10% FCS)	also measured
COc1cc(N=Nc2c(S(=O)(=O)O)cc3cc(S(=O)(=O)O)cc(NC(=O)c4ccc(Cl)cc4Cl)c3c2O)c(OC)cc1N=Nc1c(S(=O)(=O)O)cc2cc(S(=O)(=O)O)cc(NC(=O)c3ccc(Cl)cc3Cl)c2c1O [Compound 11]	Positive	160 mg/kg	30%	100%	100%	100%	100%	0%	100%	100%	Ames Test, specific mutagenic activity [1, 5]: 0.02 colony no/μg; inhibition at 0.3 µg/mL (HIV-1 RF [3]; 10% FCS): 99%; inhibition at 0.6 µg/mL (HIV-1 RF [3]; 50% Human Serum): 55%; inhibition at 1.25 µg/mL (HIV-1 RF [3]; 50% Human Serum): 87%; inhibition at 2.5 µg/mL (HIV-1 RF [3]; 50% Human Serum): 93%; inhibition at 5 µg/mL (HIV-1 RF [3]; 50% Human Serum): 98%; inhibition at 2.5 µg/mL (HIV-1 patient isolate IH; 10% FCS): 0%; inhibition at 2.5 µg/mL (HIV-1 patient isolate IH; 50% Human Serum): 0%; inhibition at 5 µg/mL (HIV-1 patient isolate IH; 50% Human Serum): 0%; inhibition at 10 µg/mL (HIV-1 patient isolate IH; 50% Human Serum): 31%; inhibition at 20 µg/mL (HIV-1 patient isolate IH; 50% Human Serum): 100%
CCC(C)(C)c1ccc(OCC(=O)Nc2cc(S(=O)(=O)O)cc3cc(S(=O)(=O)O)c(N=Nc4cc(OC)c(N=Nc5c(S(=O)(=O)O)cc6cc(S(=O)(=O)O)cc(NC(=O)c7ccc(Cl)cc7Cl)c6c5O)cc4OC)c(O)c23)c(C(C)(C)CC)c1 [Compound 15]	Negative	150 mg/kg	–	–	–	–	–	–	–	–	inhibition at 1.25 µg/mL (HIV-1 RF [4]; 1.25 μg/ml): 61%; inhibition at 2.5 µg/mL (HIV-1 RF [4]; 2.5 μg/ml): 89%; inhibition at 5 µg/mL (HIV-1 RF [4]; 5 μg/ml): 100%
COc1cc(N=Nc2c(S(=O)(=O)O)cc3cc(S(=O)(=O)O)cc(NC(=O)c4cc(Cl)ccc4Cl)c3c2O)c(OC)cc1N=Nc1c(S(=O)(=O)O)cc2cc(S(=O)(=O)O)cc(NC(=O)c3ccc(Cl)c(Cl)c3)c2c1O [Compound 12]	Negative	190 mg/kg	–	96%	99%	100%	100%	85%	100%	100%	inhibition at 0.3 µg/mL (HIV-1 RF [3]; 10% FCS): 86%; inhibition at 0.6 µg/mL (HIV-1 RF [3]; 50% Human Serum): 0%; inhibition at 1.25 µg/mL (HIV-1 RF [3]; 50% Human Serum): 0%; inhibition at 2.5 µg/mL (HIV-1 RF [3]; 50% Human Serum): 40%; inhibition at 5 µg/mL (HIV-1 RF [3]; 50% Human Serum): 93%; inhibition at 2.5 µg/mL (HIV-1 patient isolate IH; 10% FCS): 0%; inhibition at 2.5 µg/mL (HIV-1 patient isolate IH; 50% Human Serum): 0%; inhibition at 5 µg/mL (HIV-1 patient isolate IH; 50% Human Serum): 0%; inhibition at 10 µg/mL (HIV-1 patient isolate IH; 50% Human Serum): 90%; inhibition at 20 µg/mL (HIV-1 patient isolate IH; 50% Human Serum): 93%
COc1cc(N=Nc2c(S(=O)(=O)O)cc3cc(S(=O)(=O)O)cc(NC(=O)c4cccc(Cl)c4Cl)c3c2O)c(OC)cc1N=Nc1c(S(=O)(=O)O)cc2cc(S(=O)(=O)O)cc(NC(=O)c3ccccc3Cl)c2c1O [Compound 21]	Negative	160 mg/kg	–	–	–	–	–	23%	77%	100%	inhibition at 2.5 µg/mL (HIV-1 patient isolate IH; 10% FCS): 0%; inhibition at 2.5 µg/mL (HIV-1 patient isolate IH; 50% Human Serum): 10%; inhibition at 5 µg/mL (HIV-1 patient isolate IH; 50% Human Serum): 23%; inhibition at 10 µg/mL (HIV-1 patient isolate IH; 50% Human Serum): 61%; inhibition at 20 µg/mL (HIV-1 patient isolate IH; 50% Human Serum): 100%
COc1cc(N=Nc2c(S(=O)(=O)O)cc3cc(S(=O)(=O)O)cc(NC(=O)c4cccc5ccccc45)c3c2O)c(OC)cc1N=Nc1ccc2cc(S(=O)(=O)O)cc(NC(=O)c3ccccc3)c2c1O [Compound 13]	Negative	160 mg/kg	–	–	–	–	–	55%	70%	100%	–
CCC(C)(C)c1ccc(OCC(=O)Nc2cc(S(=O)(=O)O)cc3cc(S(=O)(=O)O)c(N=Nc4cc(OC)c(N=Nc5c(S(=O)(=O)O)cc6cc(S(=O)(=O)O)cc(NC(C)=O)c6c5O)cc4OC)c(O)c23)c(C(C)(C)CC)c1 [Compound 3]	Negative	150 mg/kg	77%	–	96%	100%	100%	–	–	–	–
COc1cc(N=Nc2c(S(=O)(=O)O)cc3cc(S(=O)(=O)O)cc(NC(=O)c4cc(Cl)ccc4Cl)c3c2O)c(OC)cc1N=Nc1c(S(=O)(=O)O)cc2cc(S(=O)(=O)O)cc(NC(=O)c3cc(Cl)ccc3Cl)c2c1O [Compound 7]	Positive	170 mg/kg	41%	81%	99%	100%	100%	–	–	–	Ames Test, specific mutagenic activity ([1]; unit as printed for Compound 7): 0.05 colony no/g g; inhibition at 5 µM [2]: 75%; inhibition at 0.6 µg/mL (HIV-1 RF [3]; 50% Human Serum): 0%; inhibition at 1.25 µg/mL (HIV-1 RF [3]; 50% Human Serum): 0%; inhibition at 2.5 µg/mL (HIV-1 RF [3]; 50% Human Serum): 48%; inhibition at 5 µg/mL (HIV-1 RF [3]; 50% Human Serum): 97%
COc1cc(N=Nc2c(S(=O)(=O)O)cc3cc(S(=O)(=O)O)cc(NC(=O)c4cccc(Cl)c4Cl)c3c2O)c(OC)cc1N=Nc1c(S(=O)(=O)O)cc2cc(S(=O)(=O)O)cc(NC(=O)COc3ccccc3)c2c1O [Compound 4]	Negative	160 mg/kg	–	–	–	–	–	60%	88%	98%	–
COc1cc(N=Nc2c(S(=O)(=O)O)cc3cc(S(=O)(=O)O)cc(NC(=O)Nc4cccc5ccccc45)c3c2O)c(OC)cc1N=Nc1c(S(=O)(=O)O)cc2cc(S(=O)(=O)O)cc(NC(C)=O)c2c1O [Compound 16]	Positive	160 mg/kg	–	–	–	–	–	–	–	–	Ames Test, specific mutagenic activity [1, 5]: 0.03 colony no/μg; inhibition at 5 µM [2]: 98%
COc1cc(N=Nc2c(S(=O)(=O)O)cc3cc(S(=O)(=O)O)cc(NC(=O)c4ccccc4)c3c2O)c(OC)cc1N=Nc1c(S(=O)(=O)O)cc2cc(S(=O)(=O)O)cc(NC(C)=O)c2c1O [Compound 5]	Negative	120 mg/kg	–	45%	87%	100%	100%	45%	77%	77%	–
COc1cc(N=Nc2c(S(=O)(=O)O)cc3cc(S(=O)(=O)O)cc(NC(=O)c4ccc(Cl)cc4Cl)c3c2O)c(OC)cc1N=Nc1c(S(=O)(=O)O)cc2cc(S(=O)(=O)O)cc(NC(=O)Cc3ccc(Cl)cc3)c2c1O [Compound 18]	Negative	135 mg/kg	–	–	–	–	–	–	–	–	inhibition at 5 µM [2]: 66%
COc1cc(N=Nc2c(S(=O)(=O)O)cc3cc(S(=O)(=O)O)cc(NC(=O)c4ccc(Cl)c(Cl)c4)c3c2O)c(OC)cc1N=Nc1c(S(=O)(=O)O)cc2cc(S(=O)(=O)O)cc(NC(=O)c3ccc(Cl)c(Cl)c3)c2c1O [Compound 10]	Negative	140 mg/kg	55%	–	–	–	–	–	–	–	–
